According to ChEMBL document CHEMBL1201862, “PubChem BioAssay data set” (2004):
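Exposure lasted 48 hours, with cells grown in 96-well plates and compounds tested at five concentrations. GI50 = concentration required for 50% inhibition of growth.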 Active and inactive are the calls of the source. Cut-off read from the data, not from the text of the source: active = GI50 up to about 1.1 µM and inactive = higher.

Tests used:
Assay in all cases: DTP human tumour cell line panel, 48 h
[1] = system: SNB-75
[2] = system: CAKI-1
[3] = system: COLO 205
[4] = system: NCI-H226
[5] = system: HOP-62
[6] = system: 786-0
[7] = system: SK-MEL-2
[8] = system: K562
[9] = system: SF-295
[10] = system: SW-620
[11] = system: LOX IMVI
[12] = system: Malme-3M
[13] = system: UO-31
[14] = system: NCI-H460
[15] = system: UACC-62
[16] = system: HCT-15
[17] = system: DU-145
[18] = system: Hs-578T
[19] = system: HL-60
[20] = system: HOP-92

| SMILES | GI50 [1] | GI50 [2] | GI50 [3] | GI50 [4] | GI50 [5] | GI50 [6] | GI50 [7] | GI50 [8] | GI50 [9] | GI50 [10] | GI50 [11] | GI50 [12] | GI50 [13] | GI50 [14] | GI50 [15] | GI50 [16] [µM] | GI50 [17] | GI50 [18] | GI50 [19] | GI50 [20] |
| --- | --- | --- | --- | --- | --- | --- | --- | --- | --- | --- | --- | --- | --- | --- | --- | --- | --- | --- | --- | --- |
| O=C1c2ccccc2-c2c1c(-c1ccc(F)cc1)nc1ccc3ccccc3c21 | > 100 µM (inactive) | > 100 µM (inactive) | > 100 µM (inactive) | > 100 µM (inactive) | > 100 µM (inactive) | > 100 µM (inactive) | > 100 µM (inactive) | > 100 µM (inactive) | > 100 µM (inactive) | > 100 µM (inactive) | > 100 µM (inactive) | > 100 µM (inactive) | > 100 µM (inactive) | > 100 µM (inactive) | > 100 µM (inactive) | > 100 | > 100 µM (inactive) | > 100 µM (inactive) | – | – |
| NC(=O)c1ccc(/N=N/O)nc1 | > 100 µM (inactive) | > 100 µM (inactive) | > 100 µM (inactive) | > 100 µM (inactive) | > 100 µM (inactive) | > 100 µM (inactive) | – | > 100 µM (inactive) | > 100 µM (inactive) | > 100 µM (inactive) | – | 0.0755 µM (active) | > 100 µM (inactive) | > 100 µM (inactive) | > 100 µM (inactive) | > 100 | > 100 µM (inactive) | > 100 µM (inactive) | > 100 µM (inactive) | – |
| C[C@@H]1[C@H](C)N1CC(O)Cn1ccnc1[N+](=O)[O-] (stereo not given in full) | > 100 µM (inactive) | > 100 µM (inactive) | > 100 µM (inactive) | > 100 µM (inactive) | > 100 µM (inactive) | > 100 µM (inactive) | > 100 µM (inactive) | > 100 µM (inactive) | > 100 µM (inactive) | > 100 µM (inactive) | > 100 µM (inactive) | > 100 µM (inactive) | > 100 µM (inactive) | > 100 µM (inactive) | > 100 µM (inactive) | > 100 | > 100 µM (inactive) | > 100 µM (inactive) | > 100 µM (inactive) | – |
| COc1ccc(-c2oc3c(CC(=O)O)cccc3c(=O)c2OC)cc1 | – | 21.6 µM (inactive) | > 100 µM (inactive) | > 100 µM (inactive) | > 100 µM (inactive) | > 100 µM (inactive) | > 100 µM (inactive) | > 100 µM (inactive) | > 100 µM (inactive) | – | – | > 100 µM (inactive) | 0.0809 µM (active) | – | > 100 µM (inactive) | – | > 100 µM (inactive) | > 100 µM (inactive) | > 100 µM (inactive) | – |
| O=S(=O)(Nc1nccs1)c1ccc(Nc2nc(-c3cccs3)nc3ccc(I)cc23)cc1 | 36.4 µM (inactive) | 9.91 µM (inactive) | 6.34 µM (inactive) | 35.1 µM (inactive) | 16.3 µM (inactive) | 15.5 µM (inactive) | 38.5 µM (inactive) | 14.8 µM (inactive) | 11.8 µM (inactive) | 13 µM (inactive) | 14.6 µM (inactive) | 14.3 µM (inactive) | 17 µM (inactive) | 9.73 µM (inactive) | 19.2 µM (inactive) | 32.1 | 9.48 µM (inactive) | – | 42.3 µM (inactive) | 9.35 µM (inactive) |
| CC1=C2CC3=C(C)C(=O)O[C@H]3C[C@@H](C)[C@@H]2CC1 [AMERICANOLIDE D] | 97.5 µM (inactive) | > 100 µM (inactive) | > 100 µM (inactive) | > 100 µM (inactive) | – | > 100 µM (inactive) | > 100 µM (inactive) | 37.8 µM (inactive) | > 100 µM (inactive) | > 100 µM (inactive) | > 100 µM (inactive) | > 100 µM (inactive) | > 100 µM (inactive) | > 100 µM (inactive) | > 100 µM (inactive) | > 100 | – | > 100 µM (inactive) | 80.5 µM (inactive) | > 100 µM (inactive) |
